From ChEMBL document CHEMBL4739717, “Methods of treating cartilage disorders through inhibition of clk and dyrk” (2020) come the findings set out here.

The nature of experiment [1]: Induction of chondrogenesis in human MSC assessed as maximum activity at 30 nM incubated for 6 days by rhodamine B and Nile red staining based imaging analysis relative to control. It is filed as functional. Conditions: BMMSC, 144 h, time 6 day.
The nature of experiment [2]: Effect on Wnt signaling pathway in human SW480 cells harbouring TCF/LEF luciferase reporter gene and SP5-Luc reporter gene incubated for 36 to 48 hrs by luminescence assay. It is filed as cell-based. (Reporter assays use an easily measured gene product as a stand-in for the process of interest.)
In experiment [3] the target is Dual specificity tyrosine-phosphorylation-regulated kinase 1A (Homo sapiens, UniProt Q13627). The experiment in a line: Inhibition of recombinant DYRK1A (unknown origin) using Ser/Thr 18 peptide as substrate incubated for 1 hr in presence of ATP by FRET assay.
Experiment [4] can be described thus: Induction of chondrogenesis in human MSC assessed as incubated for 6 days by rhodamine B and Nile red staining based imaging analysis. It is filed as functional. The following applies: bmmsc.

Each structure is given as a SMILES string.

Take `CCC(=O)Nc1cncc(-c2ccc3[nH]nc(-c4nc5c(-c6cccc(F)c6)cncc5[nH]4)c3c2)c1`: the maximal response (Emax) at 0.03 µM in experiment [1] stood at 139%. The figures for the 50% effective concentration (EC50) in experiment [2], in experiment [3] and in experiment [4] were 4.6 nM, 61 nM and 30 nM, respectively.
With `O=C(Nc1cncc(-c2ccc3[nH]nc(-c4cc5ccncc5[nH]4)c3n2)c1)C1CCCC1`, in experiment [1], the Emax at 0.03 µM was 50.3%. The EC50 in experiment [2] worked out at 2630 nM; in experiment [3], 12 nM; in experiment [4], 30 nM.
The corresponding values for `Fc1cccc(-c2cncc3[nH]c(-c4n[nH]c5ncc(-c6cncc(CN7CCCCC7)c6)cc45)cc23)c1` are 108%, 3120 nM, 74 nM and 10 nM.
On to `CCCC(=O)Nc1cncc(-c2ccc3[nH]nc(-c4nc5c(-c6ccsc6)ccnc5[nH]4)c3c2)c1`, for which, in experiment [1], the maximal effect (Emax) at 0.03 µM worked out at 72.6%. Further, the 50% effective concentration (EC50) came to 7.7 nM in experiment [2], 17 nM in experiment [3] and 30 nM in experiment [4].
Consider `CCNCc1cncc(-c2cc3c(-c4cc5c(-c6ccccc6F)ccnc5[nH]4)n[nH]c3cn2)c1`, for which, in experiment [1], the Emax at 0.03 µM is 270%. For the same compound, the EC50 in experiment [2] was above 10000 nM; in experiment [3], 70 nM; in experiment [4], 30 nM.
The corresponding values for `Nc1cncc(-c2cnc3[nH]nc(-c4cc5c(-c6ccncc6)nccc5[nH]4)c3c2)c1` are 53.5%, above 10000 nM, 4 nM and 30 nM.
For `COc1cccc(-c2ccnc3[nH]c(-c4n[nH]c5ccc(-c6cccnc6)nc45)nc23)c1`, the Emax at 0.03 µM in experiment [1] was determined as 50.5%. Besides, the values for the EC50 in experiment [2], in experiment [3] and in experiment [4] were 1610 nM, 36 nM and 100 nM, respectively.
The corresponding values for `CCC(=O)Nc1cncc(-c2cc3c(-c4cc5c(-c6cccc(F)c6)nccc5[nH]4)n[nH]c3cn2)c1` are 50.8%, 305 nM, 45 nM and 30 nM.
As for `O=C(Nc1cncc(-c2ccc3[nH]nc(-c4nc5c(-c6ccncc6)ccnc5[nH]4)c3n2)c1)C1CCCCC1`, the Emax at 0.03 µM in experiment [1] stood at 68.6%. In addition, the figures for the half-maximal effective concentration (EC50) in experiment [2], in experiment [3] and in experiment [4] were 999 nM, 26 nM and 10 nM, respectively.
For `CC(C)(C)C(=O)Nc1cncc(-c2ccc3[nH]nc(-c4nc5c(-c6ccc(Cl)s6)cncc5[nH]4)c3n2)c1` the same measures were 84.7%, 551 nM, 70 nM and 10 nM.
For `CC(C)Nc1cncc(-c2cnc3[nH]nc(-c4nc5c(-c6ccoc6)nccc5[nH]4)c3c2)c1` the same measures were 72%, 52.6 nM, 19 nM and 30 nM.
For the compound `Nc1cncc(-c2ccc3[nH]nc(-c4cc5c(N6CCCCC6)ccnc5[nH]4)c3c2)c1`, the Emax at 0.03 µM in experiment [1] is 130%. The 50% effective concentration (EC50) was found to be 604 nM in experiment [2], 33 nM in experiment [3] and 30 nM in experiment [4].
As to `O=C(Nc1cncc(-c2ccc3[nH]nc(-c4nc5c(N6CCCCC6)cncc5[nH]4)c3c2)c1)C1CCC1`, the Emax at 0.03 µM in experiment [1] turned out to be 106%. Also, the EC50 in experiment [2] came out at 39 nM; in experiment [3], 4 nM; in experiment [4] it was 30 nM.
For `c1cncc(-c2ccc3[nH]nc(-c4nc5c(-c6cccnc6)cncc5[nH]4)c3n2)c1` the same measures were 83.8%, above 10000 nM, 47 nM and 30 nM.
Regarding `O=C(Nc1cncc(-c2ccc3[nH]nc(-c4cc5c(-c6ccccc6F)nccc5[nH]4)c3c2)c1)C1CCCC1`, the Emax at 0.03 µM in experiment [1] worked out at 70.8%. For the same compound, the EC50 in experiment [2] is 418 nM; in experiment [3] it was 81 nM; in experiment [4], 10 nM.
For `CC(C)(C)CC(=O)Nc1cncc(-c2cc3c(-c4cc5c(-c6ccccc6F)nccc5[nH]4)n[nH]c3cn2)c1` the same measures were 54.3%, 1030 nM, 50 nM and 30 nM.
Consider `CN(C)Cc1cncc(-c2ccc3[nH]nc(-c4cc5cnccc5[nH]4)c3n2)c1`, for which the maximal effect (Emax) at 0.03 µM in experiment [1] came to 119%. Moreover, the figures for the concentration for a half-maximal effect (EC50) in experiment [2], in experiment [3] and in experiment [4] were 1140 nM, 13 nM and 30 nM, respectively.
The corresponding values for `CN1CCN(c2cncc3[nH]c(-c4n[nH]c5ccc(-c6cncc(N)c6)cc45)cc23)CC1` are 50.9%, 8250 nM, 3 nM and 30 nM.
`FC1(F)CCN(Cc2cncc(-c3ccc4[nH]nc(-c5cc6c(-c7ccccn7)cccc6[nH]5)c4n3)c2)C1`: in experiment [1], the maximal effect (Emax) at 0.03 µM came out at 81.9%. For the same compound, the values for the EC50 in experiment [2], in experiment [3] and in experiment [4] were 432 nM, 33 nM and 10 nM, respectively.
With `CN(C)Cc1cncc(-c2ccc3[nH]nc(-c4cc5c(N6CCCCC6)nccc5[nH]4)c3c2)c1`, in experiment [1], the maximal response (Emax) at 0.03 µM was determined as 220%. The results for the concentration giving a half-maximal response (EC50) in experiment [2], in experiment [3] and in experiment [4] were 4710 nM, 33 nM and 10 nM, respectively.
Take `CN(C)Cc1cncc(-c2ccc3[nH]nc(-c4nc5c(-c6cccc(F)c6)cccc5[nH]4)c3n2)c1`: the Emax at 0.03 µM in experiment [1] was determined as 84.6%. The EC50 came to 637 nM in experiment [2], 65 nM in experiment [3] and 30 nM in experiment [4].
Take `CC(C)Nc1cncc(-c2ccc3[nH]nc(-c4nc5c(-c6cc(F)cc(NCCN(C)C)c6)nccc5[nH]4)c3c2)c1`: in experiment [1], the Emax at 0.03 µM was 85.1%. The EC50 was 202 nM in experiment [2], 11 nM in experiment [3] and 30 nM in experiment [4].
Take `Fc1ccc(-c2nccc3[nH]c(-c4n[nH]c5ccc(-c6cncc(CN7CCCC7)c6)cc45)cc23)cc1`: the Emax at 0.03 µM in experiment [1] was found to be 98.5%. Besides, the EC50 came to 3620 nM in experiment [2], 60 nM in experiment [3] and 30 nM in experiment [4].
As for `CCCCC(=O)Nc1cncc(-c2ccc3[nH]nc(-c4cc5c(N6CCCCC6)nccc5[nH]4)c3n2)c1`, the Emax at 0.03 µM in experiment [1] is 54.7%. Besides, the EC50 in experiment [2] was determined as 4050 nM; in experiment [3], 43 nM; in experiment [4], 30 nM.
On to `O=C(Nc1cnccc1NC(=O)C1CC1)c1n[nH]c2ccc(-c3cncc(CN4CCCCC4)c3)cc12`, for which the Emax at 0.03 µM in experiment [1] was 53.7%. For the same compound, the EC50 in experiment [2] was 120 nM; in experiment [3], 38 nM; in experiment [4], 30 nM.
The corresponding values for `CN(C)Cc1cncc(-c2cnc3[nH]nc(-c4nc5c(-c6cccc(F)c6)cncc5[nH]4)c3c2)c1` are 183%, 13 nM, 5 nM and 30 nM.
As to `O=C(Cc1ccccc1)Nc1cncc(-c2ccc3[nH]nc(-c4nc5c(-c6ccoc6)cncc5[nH]4)c3c2)c1`, the Emax at 0.03 µM in experiment [1] amounted to 102%. The EC50 in experiment [2] stood at 33 nM; in experiment [3], 17 nM; in experiment [4], 30 nM.
For `CCNCc1cncc(-c2cc3c(-c4nc5c(-c6ccsc6)nccc5[nH]4)n[nH]c3cn2)c1` the same measures were 67.7%, 59.3 nM, 2 nM and 30 nM.
In the case of `Cn1cc(-c2cnc3[nH]nc(-c4nc5c(-c6cccc(F)c6)nccc5[nH]4)c3c2)cn1`, the Emax at 0.03 µM in experiment [1] is 74.9%. Besides, the concentration giving a half-maximal response (EC50) in experiment [2] was 11.1 nM; in experiment [3], 39 nM; in experiment [4], 30 nM.
The corresponding values for `CN(C)c1cncc(-c2ccc3[nH]nc(-c4nc5c(-c6cccc(F)c6)ccnc5[nH]4)c3n2)c1` are 83.8%, 659 nM, 25 nM and 10 nM.
For `Nc1cncc(-c2ccc3[nH]nc(-c4nc5c(-c6ccccc6F)ccnc5[nH]4)c3c2)c1` the same measures were 113%, 2 nM, 5 nM and 30 nM.
The corresponding values for `CC(C)Nc1cncc(-c2ccc3[nH]nc(-c4nc5c(-c6ccoc6)nccc5[nH]4)c3n2)c1` are 76.2%, 297 nM, 18 nM and 30 nM.
For the compound `Fc1cccc(-c2cncc3[nH]c(-c4n[nH]c5ccc(-c6cncc(CN7CCC(F)(F)C7)c6)cc45)nc23)c1`, the Emax at 0.03 µM in experiment [1] came out at 102%. In addition, the figures for the EC50 in experiment [2], in experiment [3] and in experiment [4] were 26.4 nM, 28 nM and 30 nM, respectively.
Take `c1cncc(-c2ccc3[nH]nc(-c4nc5c(-c6cccnc6)nccc5[nH]4)c3n2)c1`: the maximal effect (Emax) at 0.03 µM in experiment [1] worked out at 70%. For the same compound, the EC50 in experiment [2] is above 10000 nM; in experiment [3] it was 36 nM; in experiment [4] it was 100 nM.
For `c1cncc(-c2ccc3[nH]nc(-c4cc5c(-c6cccnc6)ccnc5[nH]4)c3n2)c1` the same measures were 59.2%, above 10000 nM, 10 nM and 100 nM.
The corresponding values for `c1cncc(-c2cc3c(-c4nc5c(-c6cccnc6)cccc5[nH]4)n[nH]c3cn2)c1` are 93%, 92.4 nM, 42 nM and 100 nM.
The corresponding values for `Cc1ccc(-c2nccc3[nH]c(-c4n[nH]c5cnc(-c6cncc(N)c6)cc45)nc23)s1` are 259%, 9.2 nM, 4 nM and 10 nM.
On to `FC1(F)CCN(Cc2cncc(-c3cc4c(-c5nc6c(N7CCCCC7)cncc6[nH]5)n[nH]c4cn3)c2)C1`, for which the maximum response (Emax) at 0.03 µM in experiment [1] turned out to be 100%. For the same compound, the values for the EC50 in experiment [2], in experiment [3] and in experiment [4] were 116 nM, 6 nM and 10 nM, respectively.
For `CCC(=O)Nc1cncc(-c2ccc3[nH]nc(-c4nc5c(-c6ccsc6)cncc5[nH]4)c3c2)c1` the same measures were 203%, 2 nM, 14 nM and 30 nM.

As a reminder, the Emax is the greatest response seen or fitted, relative to the assay's reference. For orientation: EC50 means the concentration that produces a half-maximal response.
